“Also recorded” adds a separate entry of the source. Read-outs that look alike come from different tables or passages of the source.
How the values were obtained:
[1] = Partition coefficient determination (n-octanol/PBS); type: physicochemical; conditions: n-octanol / PBS 0.02 M, pH 7.4
Method: The determination of partition coefﬁcients of [^125I]8 and [^125I]17 was performed according to the procedure previously reported with some modifications. Ligand [^125I]8 or [^125I]17 (~5 μCi) was mixed with 3 mL each of n-octanol and PBS (0.02 M, pH 7.4) in a test tube. The test tube was vortexed for 5 min at room temperature, followed by centrifugation for 10 min at 3,000 rpm. Two weighed samples from the n-octanol (50 µL) and buffer layers (400 µL) were counted in a γ-counter. The partition coefﬁcient was expressed as the logarithm of the ratio of the counts per gram from n-octanol versus that of PBS. Samples from the n-octanol layer were repartitioned until consistent partition coefﬁcient values were obtained. The measurements were done in triplicate and repeated three times.

Aβ plaques = Aβ plaques (Homo sapiens, UniProt P05067); test: In vitro labeling of brain sections from transgenic mouse by autoradiography; type: binding, transgenic model mouse (APP/PS1); conditions: APP/PS1, 12 months, male
Method: The brain sections mentioned above were incubated with [^125I]8 (5 µCi/100µL) for about 20 min at room temperature. Then the sections were washed with saturated Li2CO3 in 40% EtOH for 3 min and 40% EtOH for 3 min, followed by rinsing with water for 30 s. After drying, the ^125I-labeled sections were exposed to phosphorus ﬁlm for 8 h and then scanned with the phosphor imaging system (Cyclone, Packard) at the resolution of 600 dpi. The presence and localization of plaques were confirmed by the ﬂuorescent staining with thioﬂavin-S on the same sections using a Stereo Discovery V12 (Zeiss) instrument equipped with a LP 505 filter set (excitation: 405 nm).

[2] = In vivo biodistribution in normal mice; set-up: species or system KunMing normal mice; conditions: for Biodistribution Blood / Biodistribution Brain / Biodistribution Heart / Biodistribution Kidney / Biodistribution Liver / Biodistribution Lung / Biodistribution Muscle / Biodistribution Spleen / Biodistribution Stomach: iv injection
Method: In vivo biodistribution studies were performed in KunMing normal mice (female, average weight 18–22 g) and in accordance with the national laws related to the care and experiments on laboratory animal. A saline solution (100 µL) containing [^125I]8 or [^125I]17 (1 µCi) was injected directly into the tail vein of mice. The mice (n = 5 for each time point) were sacriﬁced at designated time points post-injection. The organs of interest were removed and weighed, and the radioactivity was counted with an automatic γ-counter (WALLAC Wizard 1470).

Aβ1–40 aggregates [3] = biological target: T1, Aβ1–40 aggregates (Homo sapiens, UniProt P05067); test: Competition binding assay on Aβ1–40 aggregates using [125I]TZDM as radio-ligand; conditions: Aβ1–40 aggregates against [125I]TZDM; triplicate, mean ± SD
T1 construct: β-amyloid(1–40) were purchased from AnaSpec; purchased AnaSpec (San Jose, CA, USA)
Method: The lyophilized white powder of β-amyloid(1–40) were purchased from AnaSpec (San Jose, CA, USA). After reconstituted by adding basic buffer (1% NH4OH. 60–70 μL) to β-amyloid (1–40) (1 mg) aggregation of Aβ1–40 was carried out by gently dissolving Aβ1–40 (0.25 mg/mL) in a PBS buffer (pH 7.4). The solution was incubated at 37 °C for 72 h with gentle and constant shaking. Binding studies were carried out according to the procedure described previously with some modifications using [^125I]TZDM as the radiolabeled standard. […] The mixture was incubated at 37 °C for 2 h. […] Filters containing the bound ^125I ligand were counted in a γ-counter (WALLAC Wizard 1470, PerkinElmer Life Sciences, Waltham, MA, USA) with 75% counting efﬁciency. The IC50 values were determined using GraphPad Prism 5.0, and those for the inhibition constant (Ki) were calculated using the Cheng Prusoff equation: Ki = IC50/(1 + [L]/Kd).

Aβ1–40 aggregates [4] = biological target: T1, Aβ1–40 aggregates; set-up: method as in PMID 11384236; conditions: literature value ref 21; cited from earlier work

Chain of Aβ plaques (P05067 672-711 limits assumed): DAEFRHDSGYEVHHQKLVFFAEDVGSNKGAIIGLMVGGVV
T1 sequence (P05067 672-711 limits assumed): as above

[125I]c1ccc(/C=C/c2ccc3[nH]ccc3c2)cc1 [[^125I]8]
logD [1]: 2.52 | Autoradiography labeling of Aβ plaques (Aβ plaques): intense and specific labeling of Aβ plaques; also recorded: excellent labeling of Aβ plaques in the cortex region; also recorded: clearly labeled amyloid plaques in the cortex region | brain2min/brain60min ratio ([2]; index of washout rate from normal brain): 15.3 | Biodistribution Blood ([2]; 2 min): 11.91 ± 0.62 % ID/g | Biodistribution Brain ([2]; 2 min): 4.27 ± 0.49 % ID/g | Biodistribution Heart ([2]; 2 min): 5.76 ± 0.38 % ID/g | Biodistribution Kidney ([2]; 2 min): 11.66 ± 1.52 % ID/g | Biodistribution Liver ([2]; 2 min): 14.73 ± 0.66 % ID/g | Biodistribution Lung ([2]; 2 min): 10.76 ± 0.63 % ID/g | Biodistribution Muscle ([2]; 2 min): 2.64 ± 0.40 % ID/g | Biodistribution Spleen ([2]; 2 min): 4.38 ± 0.33 % ID/g | Biodistribution Stomach ([2]; 2 min): 1.23 ± 0.56 % ID/organ | Biodistribution Blood ([2]; 15 min): 12.29 ± 1.30 % ID/g | Biodistribution Brain ([2]; 15 min): 1.37 ± 0.16 % ID/g | Biodistribution Heart ([2]; 15 min): 3.70 ± 0.40 % ID/g | Biodistribution Kidney ([2]; 15 min): 14.89 ± 4.23 % ID/g | Biodistribution Liver ([2]; 15 min): 10.66 ± 0.31 % ID/g | Biodistribution Lung ([2]; 15 min): 8.22 ± 0.88 % ID/g | Biodistribution Muscle ([2]; 15 min): 2.01 ± 0.24 % ID/g | Biodistribution Spleen ([2]; 15 min): 4.21 ± 0.26 % ID/g | Biodistribution Stomach ([2]; 15 min): 4.82 ± 0.46 % ID/organ | Biodistribution Blood ([2]; 30 min): 7.64 ± 0.62 % ID/g | Biodistribution Brain ([2]; 30 min): 0.64 ± 0.11 % ID/g | Biodistribution Heart ([2]; 30 min): 2.55 ± 0.52 % ID/g | Biodistribution Kidney ([2]; 30 min): 9.46 ± 1.95 % ID/g | Biodistribution Liver ([2]; 30 min): 7.14 ± 1.13 % ID/g | Biodistribution Lung ([2]; 30 min): 5.39 ± 0.83 % ID/g | Biodistribution Muscle ([2]; 30 min): 1.25 ± 0.04 % ID/g | Biodistribution Spleen ([2]; 30 min): 3.44 ± 0.21 % ID/g | Biodistribution Stomach ([2]; 30 min): 3.50 ± 0.19 % ID/organ | Biodistribution Blood ([2]; 60 min): 4.49 ± 0.28 % ID/g | Biodistribution Brain ([2]; 60 min): 0.28 ± 0.06 % ID/g | Biodistribution Heart ([2]; 60 min): 1.59 ± 0.28 % ID/g | Biodistribution Kidney ([2]; 60 min): 4.65 ± 0.98 % ID/g | Biodistribution Liver ([2]; 60 min): 4.45 ± 0.23 % ID/g | Biodistribution Lung ([2]; 60 min): 3.28 ± 0.10 % ID/g | Biodistribution Muscle ([2]; 60 min): 0.81 ± 0.12 % ID/g | Biodistribution Spleen ([2]; 60 min): 2.44 ± 0.12 % ID/g | Biodistribution Stomach ([2]; 60 min): 1.72 ± 0.21 % ID/organ | Biodistribution Blood ([2]; 120 min): 2.93 ± 0.30 % ID/g | Biodistribution Brain ([2]; 120 min): 0.20 ± 0.08 % ID/g | Biodistribution Heart ([2]; 120 min): 1.47 ± 0.48 % ID/g | Biodistribution Kidney ([2]; 120 min): 1.93 ± 0.76 % ID/g | Biodistribution Liver ([2]; 120 min): 4.19 ± 0.61 % ID/g | Biodistribution Lung ([2]; 120 min): 2.30 ± 0.20 % ID/g | Biodistribution Muscle ([2]; 120 min): 0.61 ±0.24 % ID/g | Biodistribution Spleen ([2]; 120 min): 1.87 ± 0.28 % ID/g | Biodistribution Stomach ([2]; 120 min): 3.48 ± 0.79 % ID/organ | Biodistribution Blood ([2]; 240 min): 1.50 ± 0.13 % ID/g | Biodistribution Brain ([2]; 240 min): 0.10 ± 0.02 % ID/g | Biodistribution Heart ([2]; 240 min): 0.65 ± 0.16 % ID/g | Biodistribution Kidney ([2]; 240 min): 1.34 ± 0.36 % ID/g | Biodistribution Liver ([2]; 240 min): 3.06 ± 0.36 % ID/g | Biodistribution Lung ([2]; 240 min): 1.43 ± 0.52 % ID/g | Biodistribution Muscle ([2]; 240 min): 0.35 ± 0.09 % ID/g | Biodistribution Spleen ([2]; 240 min): 1.37 ± 0.09 % ID/g | Biodistribution Stomach ([2]; 240 min): 2.31 ± 1.44 % ID/organ

CN(C)c1ccc(-c2nc3ccc(I)cc3s2)cc1 [TZDM, reference compound]
Ki (Aβ1–40 aggregates [3]): 4.2 ± 0.4 nM | Ki (Aβ1–40 aggregates [4]): 0.9 ± 0.2 nM
